In the assay the target is T1, TaHeR (Thermoplasmatales archaeon SG8-52-1, UniProt Z9O312AX90).
T1 construct: wild type, N-terminal 6xHis tag, pET21a(+), E. coli C43(DE3), purified in octyl glucoside; symmetric dimer, one protomer in asymmetric unit
T1 sequence (Z9O312AX90 1-259): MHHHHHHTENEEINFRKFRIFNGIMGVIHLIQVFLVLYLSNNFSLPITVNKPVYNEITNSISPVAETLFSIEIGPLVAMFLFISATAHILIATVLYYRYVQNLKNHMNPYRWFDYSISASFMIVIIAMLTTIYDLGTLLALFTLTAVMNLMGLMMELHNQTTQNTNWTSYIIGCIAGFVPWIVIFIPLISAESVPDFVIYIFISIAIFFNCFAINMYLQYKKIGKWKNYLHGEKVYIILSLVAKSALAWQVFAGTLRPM
The experiment in a line: absorption red-shift titration with NaCl. It counts as binding. To be noted: pH 5.0, up to 300 mM NaCl; anion site in Schiff base cavity near protonated Glu-108; crystal structure at pH 4.5 also shows a second, extracellular chloride.

As to `Cl` [chloride], the Kd (usually the equilibrium constant for the complex coming apart) was roughly 67 mM.

For the origin of these results see paper PMC9385722 (Scientific Reports, 2022).
